Results published in paper PMC11643962, “Exploring 4,7-Disubstituted Pyrimido[4,5-d]pyrimidines as Antiviral and Anticancer Agents” (Molecules, 2024).
Read-outs that look alike come from different tables or passages of the source.

Key:
Zika virus (ZikV mr766) = experiment: Antiviral CPE reduction assay, Zika virus mr766 in VeroE6 cells; type: cell-based; settings: mean ± SD, no unit printed on the supplement page (Table 2 of the same screen is in µM)
in vitro [1] = settings: dog
HCoV-NL63 = experiment: Antiviral CPE reduction assay, HCoV-NL63 in Hep3B cells; type: cell-based, human coronavirus NL63; settings: mean ± SD of two or three independent experiments
[2] = tested on: influenza A/H1N1 (A/Ned/378/05); experiment: Antiviral CPE reduction assay, influenza A/H1N1 in MDCK cells; type: cell-based, influenza A virus; settings: read-out: Antiviral Activity (EC50) Influenza H1N1
[3] = tested on: Capan-1 (pancreatic adenocarcinoma); experiment: MTS proliferation assay, Capan-1; settings: read-out: Anti-Proliferative Activity (IC50) Capan-1
HCoV-OC43 = experiment: Antiviral CPE reduction assay, HCoV-OC43 in HEL299 cells; type: cell-based, human coronavirus OC43; settings: mean ± SD of two or three independent experiments
[4] = tested on: respiratory syncytial virus A (RSV A Long); experiment: Antiviral CPE reduction assay, RSV A Long in Hep2 cells; type: cell-based
HCoV-229E = experiment: Antiviral CPE reduction assay, HCoV-229E in HEL299 cells; type: cell-based, human coronavirus 229E; settings: mean ± SD of two or three independent experiments
in vitro [5] = settings: African green monkey
[6] = tested on: DND-41 (acute lymphoblastic leukemia); experiment: MTS proliferation assay, DND-41; settings: read-out: Anti-Proliferative Activity (IC50) DND-41
[7] = tested on: influenza B (B/Ned/537/05); experiment: Antiviral CPE reduction assay, influenza B in MDCK cells; type: cell-based, influenza B virus; settings: read-out: Antiviral Activity (EC50) Influenza B
[8] = tested on: eight diverse human cancer cell lines; experiment: MTS proliferation assay, panel of eight human cancer cell lines (statements for the whole panel); settings: 72 h
[9] = tested on: Z-138 (non-Hodgkin lymphoma); experiment: MTS proliferation assay, Z-138; settings: read-out: Anti-Proliferative Activity (IC50) Z-138
[10] = tested on: influenza A/H3N2 (A/HK/7/87); experiment: Antiviral CPE reduction assay, influenza A/H3N2 in MDCK cells; type: cell-based, influenza A virus; settings: read-out: Antiviral Activity (EC50) Influenza H3N2
[11] = tested on: NCI-H460 (lung carcinoma); experiment: MTS proliferation assay, NCI-H460; settings: read-out: Anti-Proliferative Activity (IC50) NCI-H460
[12] = tested on: HCT-116 (colorectal carcinoma); experiment: MTS proliferation assay, HCT-116; settings: read-out: Anti-Proliferative Activity (IC50) HCT-116
[13] = tested on: yellow fever virus (YFV 17D); experiment: microbe, parasite or virus in culture; type: cell-based
[14] = tested on: K-562 (chronic myeloid leukemia); experiment: MTS proliferation assay, K-562; settings: read-out: Anti-Proliferative Activity (IC50) K-562
[15] = tested on: herpes simplex virus-1 (HSV-1 KOS); experiment: Antiviral CPE reduction assay, HSV-1 KOS in HEL299 cells; type: cell-based; settings: mean ± SD, no unit printed on the supplement page (Table 2 of the same screen is in µM)
[16] = tested on: HL-60 (acute myeloid leukemia); experiment: MTS proliferation assay, HL-60; settings: read-out: Anti-Proliferative Activity (IC50) HL-60
LN-229 (glioblastoma) = experiment: MTS proliferation assay, LN-229; settings: read-out: Anti-Proliferative Activity (IC50) LN-229
[17] = tested on: eight diverse human cancer cell lines
[18] = tested on: variety of viruses (HSV-1, influenza viruses, yellow fever virus, Zika virus, RSV, HCoV-229E, HCoV-OC43, HCoV-NL63); type: cell-based; settings: CPE reduction assays, virus panel
in vitro [19] = settings: human
in vitro [20] = settings: human; remark: listed apart in the source
in vitro [21] = settings: human; remark: listed apart in the source
[22] = Betacoronavirus 1, OC43, HEL 299, MTS
[23] = Human coronavirus 229E, HEL 299, MTS
[24] = Yellow fever virus, Vero C1008, read-out: Antiviral activity (EC50) YFV 17D
[25] = Human alphaherpesvirus 1, HEL 299, MTS
[26] = MDCK cells, CPE reduction, MTS, mean ± SD of two or three independent experiments
[27] = 72 h, MTS, mean ± SD of two independent experiments
[28] = Influenza A virus, H1N1, MDCK cells, CPE reduction, MTS, mean ± SD of two or three independent experiments
[29] = human respiratory syncytial virus, HEp-2, Hep2 cells, CPE reduction, MTS, mean ± SD of two or three independent experiments, read-out: Antiviral Activity (EC50) RSV A Long
[30] = Influenza A virus, H3N2, MDCK cells, CPE reduction, MTS, mean ± SD of two or three independent experiments
[31] = read-out: CC50 values (cytotoxic activity) in the cancer cell line panel

Compound: CC#CC(=O)Nc1ccc2ncnc(Nc3cccc(Br)c3)c2c1 [CL-387785, reference compound]
- EC50 (Zika virus (ZikV mr766); Zika virus, Vero C1008, MTS): > 100 µM
- CC50 (in vitro [1]): 7.1 ± 0.4 µM
- EC50 (HCoV-NL63; Human coronavirus NL63, MTS): > 100 µM
- EC50 ([2]; Influenza A virus, H1N1, MDCK): > 100 µM
- IC50 ([3]; Homo sapiens, CAPAN-1, 72 h): 0.1 ± 0.01 µM
- EC50 (HCoV-OC43; [22]): 1.8 ± 0.4 µM
- EC50 ([4]; human respiratory syncytial virus, HEp-2, read-out: Antiviral Activity (EC50) RSV A Long): > 100 µM
- EC50 (HCoV-229E; [23]): 0.4 ± 0.2 µM
- CC50 (in vitro [5]): > 100 µM
- IC50 ([6]; Homo sapiens, DND41, 72 h): 0.9 ± 0.2 µM
- EC50 ([7]; Influenza B virus, MDCK): 4.5 ± 1.2 µM
- CC50 ([8]; read-out: CC50 values (anti-proliferative activity) against the majority of the tested cell lines): < 10 µM
- IC50 ([9]; Homo sapiens, Z-138, 72 h): 0.2 ± 0.1 µM
- EC50 ([10]; Influenza A virus, H3N2, MDCK): > 100 µM
- IC50 ([11]; Homo sapiens, NCI-H460, 72 h): 2.8 ± 0.6 µM
- IC50 ([12]; Homo sapiens, HCT-116, 72 h): 1.3 ± 1.1 µM
- EC50 [13, 24]: > 100 µM
- IC50 ([14]; Homo sapiens, K562, 72 h): 65 ± 0.2 µM
- EC50 [15, 25]: 1 µM
- IC50 ([16]; Homo sapiens, HL-60, 72 h): 1.9 ± 0.04 µM
- IC50 (LN-229 (glioblastoma); Homo sapiens, LN-229, 72 h): 43.8 ± 6.7 µM

Compound: C=CC(=O)Nc1cccc(Nc2nc(Nc3ccc(NC4CN(CCF)C4)cc3OC)ncc2C(F)(F)F)c1 [CNX-2006, reference compound]
- EC50 (Zika virus (ZikV mr766); MTS): > 100 µM
- CC50 [17]: < 10 µM
- EC50 (HCoV-NL63; MTS): > 100 µM
- CC50 (VeroE6 cells): 9.2 ± 1.1 µM
- EC50 [2, 26]: > 100 µM
- IC50 [3, 27]: 1.7 ± 0.01 µM
- EC50 (HCoV-OC43; MTS): 2.2 ± 0.8 µM
- EC50 ([4]; Hep2 cells, CPE reduction, MTS, mean ± SD of two or three independent experiments, read-out: Antiviral Activity (EC50) RSV A Long): > 100 µM
- EC50 (HCoV-229E; MTS): 1.8 ± 0.2 µM
- IC50 [6, 27]: 4.5 ± 0.2 µM
- EC50 [7, 26]: > 100 µM
- IC50 [9, 27]: 2.6 ± 0.5 µM
- CC50 (HEL299 cells): 11.1 ± 1 µM
- CC50 (Hep3B cells): 4.3 ± 1.8 µM
- CC50 (MDCK cells): 1.7 ± 0.4 µM
- EC50 [10, 26]: > 100 µM
- IC50 [11, 27]: 8.7 ± 1.9 µM
- CC50 (Hep2 cells): 11.7 ± 0.8 µM
- IC50 [12, 27]: 6.6 ± 0.7 µM
- EC50 ([13]; VeroE6 cells, CPE reduction, MTS, mean ± SD, no unit printed on the supplement page (Table 2 of the same screen is in µM), read-out: Antiviral activity (EC50) YFV 17D): > 100 µM
- IC50 [14, 27]: 11.5 ± 0.06 µM
- EC50 ([15]; MTS): > 100 µM
- IC50 [16, 27]: 3.8 ± 1.4 µM
- IC50 (LN-229 (glioblastoma); [27]): 8.2 ± 1.2 µM

Compound: CN1CCN(c2ncc3c(Nc4cccnc4)ncnc3n2)CC1 [Compound 7k, 7-(4-methylpiperazin-1-yl)-N-(pyridin-3-yl)pyrimido[4,5-d]pyrimidin-4-amine]
- EC50 (Zika virus (ZikV mr766); Zika virus, Vero C1008, MTS): > 50 µM
- CC50 (in vitro [1]): > 50 µM
- EC50 (HCoV-NL63; Human coronavirus NL63, MTS): > 50 µM
- EC50 [2, 28]: > 50 µM
- IC50 ([3]; Homo sapiens, CAPAN-1, 72 h): > 100 µM
- EC50 (HCoV-OC43; [22]): > 50 µM
- EC50 [4, 29]: > 50 µM
- EC50 (HCoV-229E; [23]): > 50 µM
- CC50 (in vitro [5]): > 50 µM
- IC50 ([6]; Homo sapiens, DND41, 72 h): > 100 µM
- EC50 ([7]; Influenza B virus, MDCK): > 50 µM
- melting point: > 300 °C
- antiviral activity (in words) [18]: inactive
- IC50 ([9]; Homo sapiens, Z-138, 72 h): > 100 µM
- CC50 (in vitro [19]): > 50 µM
- CC50 (in vitro [20]): > 50 µM
- EC50 [10, 30]: > 50 µM
- CC50 (in vitro [21]): > 50 µM
- IC50 ([11]; Homo sapiens, NCI-H460, 72 h): > 100 µM
- IC50 ([12]; Homo sapiens, HCT-116, 72 h): > 100 µM
- EC50 [13, 24]: > 50 µM
- IC50 ([14]; Homo sapiens, K562, 72 h): > 100 µM
- EC50 [15, 25]: > 50 µM
- IC50 ([16]; Homo sapiens, HL-60, 72 h): > 100 µM
- IC50 (LN-229 (glioblastoma); Homo sapiens, LN-229, 72 h): > 100 µM

Compound: C#Cc1cccc(Nc2ncnc3cc4c(cc23)OCCOCCOCCO4)c1 [Icotinib, icotinib, reference compound]
- EC50 (Zika virus (ZikV mr766); Zika virus, Vero C1008, MTS): > 100 µM
- CC50 (in vitro [1]): > 100 µM
- EC50 (HCoV-NL63; Human coronavirus NL63, MTS): > 100 µM
- EC50 [2, 28]: > 100 µM
- IC50 ([3]; Homo sapiens, CAPAN-1, 72 h): > 100 µM
- EC50 (HCoV-OC43; [22]): > 100 µM
- EC50 [4, 29]: > 100 µM
- EC50 (HCoV-229E; [23]): > 100 µM
- CC50 (in vitro [5]): > 100 µM
- IC50 ([6]; Homo sapiens, DND41, 72 h): > 100 µM
- EC50 ([7]; Influenza B virus, MDCK cells, CPE reduction, MTS, mean ± SD of two or three independent experiments): > 100 µM
- CC50 [8, 31]: > 100 µM
- IC50 ([9]; Homo sapiens, Z-138, 72 h): > 100 µM
- CC50 (in vitro [19]): > 100 µM
- CC50 (in vitro [20]): > 100 µM
- EC50 [10, 30]: > 100 µM
- CC50 (in vitro [21]): > 100 µM
- IC50 ([11]; Homo sapiens, NCI-H460, 72 h): > 100 µM
- IC50 ([12]; Homo sapiens, HCT-116, 72 h): > 100 µM
- EC50 [13, 24]: > 100 µM
- IC50 ([14]; Homo sapiens, K562, 72 h): > 100 µM
- EC50 [15, 25]: > 100 µM
- IC50 ([16]; Homo sapiens, HL-60, 72 h): > 100 µM
- IC50 (LN-229 (glioblastoma); Homo sapiens, LN-229, 72 h): > 100 µM

Compound: C=CC(=O)Nc1cccc(Oc2nc(Nc3ccc(N4CCN(C)CC4)cc3OC)ncc2Cl)c1 [WZ4002, reference compound]
- EC50 (Zika virus (ZikV mr766); Zika virus, Vero C1008, MTS): > 100 µM
- CC50 (in vitro [1]): > 100 µM
- EC50 (HCoV-NL63; Human coronavirus NL63, MTS): > 100 µM
- EC50 [2, 28]: > 100 µM
- IC50 ([3]; Homo sapiens, CAPAN-1, 72 h): > 100 µM
- EC50 (HCoV-OC43; [22]): > 100 µM
- EC50 [4, 29]: > 100 µM
- EC50 (HCoV-229E; [23]): 41.8 ± 9.8 µM
- CC50 (in vitro [5]): > 100 µM
- IC50 ([6]; Homo sapiens, DND41, 72 h): > 100 µM
- EC50 ([7]; Influenza B virus, MDCK): > 100 µM
- CC50 [8, 31]: > 100 µM
- IC50 ([9]; Homo sapiens, Z-138, 72 h): > 100 µM
- CC50 (in vitro [19]): > 100 µM
- CC50 (in vitro [20]): > 100 µM
- EC50 [10, 30]: > 100 µM
- CC50 (in vitro [21]): > 100 µM
- IC50 ([11]; Homo sapiens, NCI-H460, 72 h): > 100 µM
- IC50 ([12]; Homo sapiens, HCT-116, 72 h): > 100 µM
- EC50 [13, 24]: > 100 µM
- IC50 ([14]; Homo sapiens, K562, 72 h): > 100 µM
- EC50 [15, 25]: > 100 µM
- IC50 ([16]; Homo sapiens, HL-60, 72 h): > 100 µM
- IC50 (LN-229 (glioblastoma); Homo sapiens, LN-229, 72 h): > 100 µM
